Read-outs that look alike come from different tables or passages of the source.
What was measured:
[1] = system: tubulin acetylation (acTubK40) in undifferentiated SH-SY5Y cells; experiment: Tubulin acetylation in cells (Western immunoblot); assay type: cell-based; settings: Homo sapiens, 4 hours, acetylTubulin/Tubulin ratio
Method: (§1) Compound EC50 Determination for Tubulin- and Histone H3 Acetylation in Cells
(§2) Estimation of the EC50 for exemplary compounds to alter target protein acetylation in undifferentiated SH-SY5Y cells was performed using standard Western immunoblotting methods. […] SH-SY5Y cells were grown to 90% confluency on sterile cell growth plates. 10 mM compound stocks prepared in DMSO and two-fold serial dilutions were prepared from the stock and applied to cells to achieve a 12-point concentration range in cell media from an upper limit of 10 μM to a lower limit of DMSO [zero compound].
(§3) Cells were incubated under normal growth conditions (37° C., 5% CO2) in the presence of compound for 4 hours, then media was aspirated and cells were rinsed two times with 1×DPBS with calcium and magnesium warmed to 37° C. Cells were frozen directly on the plates on a bed of dry ice for 5 min, then stored at −80° C. until protein extraction.
(§4) Protein extraction was performed in RIPA buffer (50 mM Tris-HCL pH 8.0, 150 mM NaCl, 0.5% sodium deoxycholate, 0.1% sodium dodecyl sulfate, 1% NP-40) supplemented with Pierce protease inhibitor mini tables (Thermofisher cat #A32953) exactly as described by the manufacturer. After thawing the plate on a bed of wet ice for 10 minutes, lysis buffer was added to each well (e.g. 100 μL per well of a 24-well plate) and cells scraped from the bottom of each well. Lysates were then sonicated over ice (40% power, 30 pulses of 1 second on, 2 seconds off), centrifuged at 16,000 g for 10 min at 4° C., and the clarified supernatant saved. Protein concentration was determined by BCA assay and at least 3 μg prepared per lane by combining lysate supernatant aliquot with 1/3 total volume of 3× gel loading buffer containing DTT (NEB Cat. #B7703S), heating for 5 minutes at 95° C., briefly centrifuging and then loading on an SDS-PAGE gel.
(§5) Proteins were resolved on a 4-20% Tris-Glycine gel and transferred to PVDF membrane using an iBlot2 dry transfer system. The membrane was then blocked for at least 30 minutes at room temperature in TBST containing 5% milk or 5% bovine serum albumin, then incubated overnight at 4° C. with a single primary antibody from the following table:
(§6) Following primary antibody incubation, membranes were washed, incubated in secondary antibody, washed and incubated in ECL prime western blotting detection reagent (Amersham #RPN223) with membrane exposure and ECL signal capture in a LI-COR Odyssey Imaging system. […] Subsequent densitometry of immunoreactive bands was performed using the ImageStudio software and Microsoft Excel resulting in the following ratios: acetylTubulin/Tubulin and acetyl histone H3K9/histone H3. Raw ratios were uploaded to GraphPad Prism v7.0 with EC50 values modeled using the variable slope equation for log-transformed data [log(agonist) vs response in Prism].

[2] = system: histone H3 acetylation (acH3K9) in undifferentiated SH-SY5Y cells; experiment: Histone H3 acetylation in cells (Western immunoblot); assay type: cell-based; settings: Homo sapiens, 4 hours, acetyl histone H3K9/histone H3 ratio
Method: as §1, §2, §3, §4, §5, §6

Full length Human HDAC6 = biological target: T1, Full length Human HDAC6 (Homo sapiens, UniProt Q9UBN7); settings: for Selectivity (6 v 8) (fold): ratio of HDAC8 IC50/HDAC6 IC50
T1 sequence (Q9UBN7 1-1215): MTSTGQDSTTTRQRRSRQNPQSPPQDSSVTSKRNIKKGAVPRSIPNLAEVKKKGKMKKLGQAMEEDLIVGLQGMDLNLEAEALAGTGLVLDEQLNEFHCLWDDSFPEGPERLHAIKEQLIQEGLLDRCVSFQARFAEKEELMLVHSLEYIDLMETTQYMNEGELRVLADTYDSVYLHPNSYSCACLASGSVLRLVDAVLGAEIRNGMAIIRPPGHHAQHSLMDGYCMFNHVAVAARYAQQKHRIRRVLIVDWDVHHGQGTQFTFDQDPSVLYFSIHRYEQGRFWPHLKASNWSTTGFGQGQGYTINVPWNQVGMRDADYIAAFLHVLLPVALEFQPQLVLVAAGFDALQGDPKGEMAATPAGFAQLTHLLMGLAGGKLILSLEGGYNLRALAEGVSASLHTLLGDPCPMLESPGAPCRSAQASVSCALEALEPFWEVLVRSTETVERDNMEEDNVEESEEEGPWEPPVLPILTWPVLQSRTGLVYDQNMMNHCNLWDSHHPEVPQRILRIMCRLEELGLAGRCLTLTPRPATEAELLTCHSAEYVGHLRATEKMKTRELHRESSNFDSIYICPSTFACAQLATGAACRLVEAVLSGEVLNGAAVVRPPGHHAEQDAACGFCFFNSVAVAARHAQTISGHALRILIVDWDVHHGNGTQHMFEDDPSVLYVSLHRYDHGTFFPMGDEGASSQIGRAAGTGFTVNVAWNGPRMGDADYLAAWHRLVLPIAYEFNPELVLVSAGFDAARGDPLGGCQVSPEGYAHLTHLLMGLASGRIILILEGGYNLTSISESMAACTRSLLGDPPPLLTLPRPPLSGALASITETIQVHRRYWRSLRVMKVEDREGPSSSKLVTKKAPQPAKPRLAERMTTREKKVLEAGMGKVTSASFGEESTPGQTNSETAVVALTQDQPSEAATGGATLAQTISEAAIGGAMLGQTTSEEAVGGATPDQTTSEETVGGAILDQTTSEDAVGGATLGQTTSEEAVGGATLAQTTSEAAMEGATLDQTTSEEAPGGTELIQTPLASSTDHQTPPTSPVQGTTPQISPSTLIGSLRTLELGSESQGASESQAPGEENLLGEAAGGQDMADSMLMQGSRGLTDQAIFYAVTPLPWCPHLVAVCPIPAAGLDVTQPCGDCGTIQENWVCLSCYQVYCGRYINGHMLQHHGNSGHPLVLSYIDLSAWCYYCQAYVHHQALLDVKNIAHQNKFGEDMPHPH

Full length Human HDAC8 = biological target: T2, Full length Human HDAC8 (Homo sapiens, UniProt Q9BY41)
T2 sequence (Q9BY41 1-377): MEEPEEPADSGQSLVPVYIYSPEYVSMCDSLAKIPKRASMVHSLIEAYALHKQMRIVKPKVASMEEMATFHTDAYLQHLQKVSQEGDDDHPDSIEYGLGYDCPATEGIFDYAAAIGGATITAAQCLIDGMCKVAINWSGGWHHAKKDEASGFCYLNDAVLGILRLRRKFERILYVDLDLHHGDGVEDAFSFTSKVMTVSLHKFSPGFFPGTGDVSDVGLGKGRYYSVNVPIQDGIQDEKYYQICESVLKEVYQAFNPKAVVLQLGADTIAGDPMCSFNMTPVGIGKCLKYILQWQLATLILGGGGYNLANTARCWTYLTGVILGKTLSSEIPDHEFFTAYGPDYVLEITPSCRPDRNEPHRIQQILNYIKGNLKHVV

Full length Human HDAC1 = Full length Human HDAC1 (Homo sapiens, UniProt Q13547)
Human HDAC7 aa 518-end = biological target: T3, Human HDAC7 aa 518-end (Homo sapiens, UniProt Q8WUI4)
T3 sequence (Q8WUI4 518-952 limits assumed): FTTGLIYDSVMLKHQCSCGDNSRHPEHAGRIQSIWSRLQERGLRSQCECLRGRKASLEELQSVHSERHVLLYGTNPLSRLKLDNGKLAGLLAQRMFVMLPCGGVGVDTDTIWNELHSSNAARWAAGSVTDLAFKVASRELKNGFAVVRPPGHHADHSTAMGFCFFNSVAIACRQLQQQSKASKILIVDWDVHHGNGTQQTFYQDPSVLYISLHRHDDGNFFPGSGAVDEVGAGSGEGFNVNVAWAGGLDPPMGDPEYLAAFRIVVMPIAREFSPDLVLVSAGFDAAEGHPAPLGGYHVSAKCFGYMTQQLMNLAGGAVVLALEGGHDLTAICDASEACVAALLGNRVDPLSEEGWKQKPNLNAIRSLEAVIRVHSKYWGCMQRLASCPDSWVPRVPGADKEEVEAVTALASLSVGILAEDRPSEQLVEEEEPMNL

[3] = biological target: Human HDAC9 a.a. 604-1066 (Homo sapiens, UniProt Q9UKV0)
[4] = In vivo assessment of brain penetration in mice (IV 1 mg/kg, plasma and brain levels); settings: mouse, BL/6 mice; for Kp at 15 min / Kp at 60 min: brain and plasma, brain:plasma; for Kp at 15 min: read-out: Mouse B:P at 15 min; for Kp at 60 min: read-out: Mouse B:P at 60 min
[5] = Metabolic stability in liver microsomes: Mouse BL6; assay type: in vitro ADME; settings: 1 μM compound, 0.3 mg/mL protein, NADPH, 37° C., read-out: Mouse BL6 Liver Microsome Stability Half-life
Full length Human HDAC10 = biological target: T4, Full length Human HDAC10 (Homo sapiens, UniProt Q969S8)
T4 sequence (Q969S8 1-669): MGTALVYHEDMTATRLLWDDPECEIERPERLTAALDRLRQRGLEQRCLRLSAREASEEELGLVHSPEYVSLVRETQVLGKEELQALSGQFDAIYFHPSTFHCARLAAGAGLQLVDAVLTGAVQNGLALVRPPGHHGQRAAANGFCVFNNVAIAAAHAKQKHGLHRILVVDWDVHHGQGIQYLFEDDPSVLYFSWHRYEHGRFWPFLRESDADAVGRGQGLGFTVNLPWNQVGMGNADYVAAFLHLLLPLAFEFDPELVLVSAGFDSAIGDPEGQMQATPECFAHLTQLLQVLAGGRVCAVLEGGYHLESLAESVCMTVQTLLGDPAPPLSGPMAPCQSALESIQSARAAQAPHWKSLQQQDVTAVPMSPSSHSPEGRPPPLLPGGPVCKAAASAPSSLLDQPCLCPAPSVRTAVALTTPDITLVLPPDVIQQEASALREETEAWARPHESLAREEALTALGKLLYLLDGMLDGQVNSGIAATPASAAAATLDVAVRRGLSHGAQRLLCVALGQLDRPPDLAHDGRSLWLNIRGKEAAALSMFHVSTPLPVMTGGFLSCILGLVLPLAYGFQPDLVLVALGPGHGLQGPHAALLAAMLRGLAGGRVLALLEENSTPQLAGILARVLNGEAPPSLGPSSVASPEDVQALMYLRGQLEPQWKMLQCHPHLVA

[6] = brain, read-out: Mouse Brain Conc (μM) at 15 min
[7] = brain, read-out: Mouse Brain Conc (μM) at 60 min
[8] = plasma, read-out: Mouse Plasma Conc (μM) at 15 min
[9] = plasma, read-out: Mouse Plasma Conc (μM) at 60 min
[10] = read-out: In vitro enzymatic IC50, HDAC Paralog 6, Table 2
[11] = read-out: In vitro enzymatic IC50, HDAC Paralog 8, Table 2

Chain of Full length Human HDAC1 (Q13547 whole entry, the tested form may be a part): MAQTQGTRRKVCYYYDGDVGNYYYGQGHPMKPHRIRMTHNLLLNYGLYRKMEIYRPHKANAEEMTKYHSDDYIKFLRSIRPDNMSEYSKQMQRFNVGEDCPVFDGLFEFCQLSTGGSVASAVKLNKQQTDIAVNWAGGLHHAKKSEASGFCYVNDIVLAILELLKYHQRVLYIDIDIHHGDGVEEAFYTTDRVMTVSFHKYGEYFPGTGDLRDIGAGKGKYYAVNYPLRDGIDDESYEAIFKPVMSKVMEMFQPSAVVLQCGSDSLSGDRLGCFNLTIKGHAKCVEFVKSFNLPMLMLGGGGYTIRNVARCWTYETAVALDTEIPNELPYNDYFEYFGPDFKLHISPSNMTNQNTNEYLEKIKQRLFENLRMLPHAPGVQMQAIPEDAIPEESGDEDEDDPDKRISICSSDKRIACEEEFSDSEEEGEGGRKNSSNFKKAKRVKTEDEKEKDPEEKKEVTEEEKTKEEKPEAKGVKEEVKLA
Chain of Human HDAC9 a.a. 604-1066 (Q9UKV0 604-1066 isoform Q9UKV0-5): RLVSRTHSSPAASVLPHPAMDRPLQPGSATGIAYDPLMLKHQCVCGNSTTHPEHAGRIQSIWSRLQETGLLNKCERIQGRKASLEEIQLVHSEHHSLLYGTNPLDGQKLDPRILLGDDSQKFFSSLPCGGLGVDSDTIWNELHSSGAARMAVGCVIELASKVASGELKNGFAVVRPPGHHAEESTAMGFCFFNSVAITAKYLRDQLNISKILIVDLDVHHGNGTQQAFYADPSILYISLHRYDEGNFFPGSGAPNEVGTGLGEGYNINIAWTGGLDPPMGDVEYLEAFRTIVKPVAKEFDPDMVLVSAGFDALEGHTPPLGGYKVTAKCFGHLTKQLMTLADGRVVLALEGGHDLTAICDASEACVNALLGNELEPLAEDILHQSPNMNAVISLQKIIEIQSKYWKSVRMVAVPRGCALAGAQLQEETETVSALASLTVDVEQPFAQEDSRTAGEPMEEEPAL

SMILES	IC50 (Full length Human HDAC6) [nM]	IC50 (Full length Human HDAC8) [nM]	IC50 (Human HDAC7 aa 518-end) [nM]	Selectivity (6 v 8) (fold) (Full length Human HDAC6; Table 1, number)	Selectivity (6 v 8) (fold) (Full length Human HDAC6; Table 1, range class)	further results
Cn1c2c(c3ccccc31)CCN(Cc1ccc(C(=O)NO)cc1F)C2 [compound 45]	1 to 100	100 to 1000				EC50 [1]: 1700 nM; EC50 [2]: > 10000 nM
C[C@@H]1C[C@H]2c3c(F)cc(C(=O)NO)cc3CCN2C1 (single isomer, unassigned) [compound 152]	1 to 100	1000 to 10000	100 to 1000			IC50 (Full length Human HDAC1): 10000 to 100000 nM; IC50 [3]: 100 to 1000 nM
O=C(NO)c1cc(F)c2c(c1)CN1CCC[C@@H]1C2 (single isomer, unassigned) [compound 124]	1 to 100	1000 to 10000	1000 to 10000			IC50 (Full length Human HDAC1): > 100000 nM; IC50 [3]: > 100000 nM
O=C(NO)c1ccc2c(c1)C[C@@H]1CCCN1C2 (single isomer, unassigned) [compound 121]				80.9	III (III: >10-100)	concentration at 15 min [4, 6]: 0.19 µM; concentration at 60 min [4, 7]: 0.06 µM; concentration at 15 min [4, 8]: 0.96 µM; concentration at 60 min [4, 9]: 0.01 µM; Kp at 15 min [4]: 0.19; Kp at 60 min [4]: 5.89
O=C(NO)c1cc(F)c2c(c1)CN(CC13C4C5C6C4C1C6C53)CC2 (stereo not drawn) [compound 116, 2-(cuban-1-ylmethyl)-5-fluoro-N-hydroxy-1,2,3,4-tetrahydroisoquinoline-7-carboxamide]	1 to 100	100 to 1000		11	III (III: >10-100)	concentration at 15 min [4, 6]: 0.39 µM; concentration at 60 min [4, 7]: 0 µM; concentration at 15 min [4, 8]: 0.25 µM; concentration at 60 min [4, 9]: 0.02 µM; Kp at 15 min [4]: 1.57; Kp at 60 min [4]: 0
O=C(NO)c1ccc(CN2C3CCCC2COC3)c(F)c1 [compound 52]	1 to 100	100 to 1000		35.5	III (III: >10-100)	half-life at 1 μM [5]: 4.83 h
O=C(NO)c1cc(F)c2c(c1)CC1CCCN1C2 (single isomer, unassigned) [compound 120]	1 to 100	1000 to 10000	1000 to 10000			IC50 (Full length Human HDAC6; [10]): 1 to 100 nM; IC50 (Full length Human HDAC8; [11]): 1000 to 10000 nM; IC50 (Full length Human HDAC10): > 100000 nM
O=C(NO)c1ccc(CN2C3CCC2CC(=NO)C3)c(F)c1 [compound 54]	1 to 100	100 to 1000	1000 to 10000	38.9	III (III: >10-100)	IC50 (Full length Human HDAC6; [10]): 1 to 100 nM; IC50 (Full length Human HDAC8; [11]): 100 to 1000 nM; IC50 (Full length Human HDAC10): > 100000 nM

From patent US12528767B2, “HDAC6 inhibitors and uses thereof” (Eikonizo Therapeutics, Inc., priority 2019, dated 2026)
